{
  "source": "patent US4933456A",
  "about": "“Dipyridoxyl phosphate NMRI contrast agents” (Salutar, Inc., priority 1987, dated 1990)",
  "key": {"[1]": {"tested_on": "selected body organs", "conditions": "30 min", "description": "Each of four rabbits was injected intravenously with one of the following amounts of the solution obtained in Example 7: 0.01 mmoles/kg, 0.05 mmoles/kg, 0.10 mmoles/kg and 0.20 mmoles/kg. The rabbits were sacrificed 30 min post injection, and the proton relaxation values of selected body organs were measured with NMR, in vitro at 10 MHz."}, "[2]": {"conditions": "defects not observable without Mn(DPDP)"}},
  "note": "Read-outs that look alike come from different tables or passages of the source.",
  "data": [
    {"smiles": "Cc1ncc(COP(=O)(O)O)c(CN(CCN(CC(=O)[O-])Cc2c(COP(=O)(O)O)cnc(C)c2O)CC(=O)[O-])c1O.[Mn+2]", "note": "[Mn(DPDP), sodium-calcium salt of a manganese chelate complex of N,N,-bis-(pyridoxal-5-phosphate)ethylenediamine-N,N'-diacetic acid or N,N'-bis(3-hydroxy-2-methyl-5-phosphonomethyl-4-pyridylmethyl)ethylenediamine-N,N'-diacetic acid]", "values": [
      {"measurement": "uptake by the heart through the dose range studied", "setting": "[1]; 0.05-0.20 mmol/kg, i.v.", "value": "continues to uptake"},
      {"measurement": "T1", "setting": "[1]; Blood, 0.01 mmol/kg i.v.", "value": 844, "unit": "ms"},
      {"measurement": "T1", "setting": "[1]; Blood, 0.05 mmol/kg i.v.", "value": 613, "unit": "ms"},
      {"measurement": "T1", "setting": "[1]; Blood, 0.10 mmol/kg i.v.", "value": 506, "unit": "ms"},
      {"measurement": "T1", "setting": "[1]; Blood, 0.20 mmol/kg i.v.", "value": 411, "unit": "ms"},
      {"measurement": "T1", "setting": "[1]; Brain, 0.01 mmol/kg i.v.", "value": 554, "unit": "ms"},
      {"measurement": "T2", "setting": "[1]; Brain, 0.01 mmol/kg i.v.", "value": 76, "unit": "ms"},
      {"measurement": "T1", "setting": "[1]; Brain, 0.05 mmol/kg i.v.", "value": 496, "unit": "ms"},
      {"measurement": "T2", "setting": "[1]; Brain, 0.05 mmol/kg i.v.", "value": 82, "unit": "ms"},
      {"measurement": "T1", "setting": "[1]; Brain, 0.10 mmol/kg i.v.", "value": 590, "unit": "ms"},
      {"measurement": "T2", "setting": "[1]; Brain, 0.10 mmol/kg i.v.", "value": 90, "unit": "ms"},
      {"measurement": "T1", "setting": "[1]; Brain, 0.20 mmol/kg i.v.", "value": 352, "unit": "ms"},
      {"measurement": "T2", "setting": "[1]; Brain, 0.20 mmol/kg i.v.", "value": 66, "unit": "ms"},
      {"measurement": "T1", "setting": "[1]; Fat, 0.05 mmol/kg i.v.", "value": 200, "unit": "ms"},
      {"measurement": "T2", "setting": "[1]; Fat, 0.05 mmol/kg i.v.", "value": 139, "unit": "ms"},
      {"measurement": "T1", "setting": "[1]; Fat, 0.10 mmol/kg i.v.", "value": 183, "unit": "ms"},
      {"measurement": "T2", "setting": "[1]; Fat, 0.10 mmol/kg i.v.", "value": 115, "unit": "ms"},
      {"measurement": "T1", "setting": "[1]; Fat, 0.20 mmol/kg i.v.", "value": 192, "unit": "ms"},
      {"measurement": "T1", "setting": "[1]; Heart, 0.05 mmol/kg i.v.", "value": 353, "unit": "ms"},
      {"measurement": "T2", "setting": "[1]; Heart, 0.05 mmol/kg i.v.", "value": 54, "unit": "ms"},
      {"measurement": "T1", "setting": "[1]; Heart, 0.10 mmol/kg i.v.", "value": 300, "unit": "ms"},
      {"measurement": "T2", "setting": "[1]; Heart, 0.10 mmol/kg i.v.", "value": 51, "unit": "ms"},
      {"measurement": "T1", "setting": "[1]; Heart, 0.20 mmol/kg i.v.", "value": 205, "unit": "ms"},
      {"measurement": "T2", "setting": "[1]; Heart, 0.20 mmol/kg i.v.", "value": 47, "unit": "ms"},
      {"measurement": "T1", "setting": "[1]; Large Int., 0.01 mmol/kg i.v.", "value": 283, "unit": "ms"},
      {"measurement": "T2", "setting": "[1]; Large Int., 0.01 mmol/kg i.v.", "value": 64, "unit": "ms"},
      {"measurement": "T1", "setting": "[1]; Large Int., 0.05 mmol/kg i.v.", "value": 365, "unit": "ms"},
      {"measurement": "T2", "setting": "[1]; Large Int., 0.05 mmol/kg i.v.", "value": 83, "unit": "ms"},
      {"measurement": "T1", "setting": "[1]; Large Int., 0.10 mmol/kg i.v.", "value": 290, "unit": "ms"},
      {"measurement": "T2", "setting": "[1]; Large Int., 0.10 mmol/kg i.v.", "value": 57, "unit": "ms"},
      {"measurement": "T1", "setting": "[1]; Large Int., 0.20 mmol/kg i.v.", "value": 256, "unit": "ms"},
      {"measurement": "T2", "setting": "[1]; Large Int., 0.20 mmol/kg i.v.", "value": 74, "unit": "ms"},
      {"measurement": "T1", "setting": "[1]; Liver, 0.01 mmol/kg i.v.", "value": 176, "unit": "ms"},
      {"measurement": "T2", "setting": "[1]; Liver, 0.01 mmol/kg i.v.", "value": 39, "unit": "ms"},
      {"measurement": "T1", "setting": "[1]; Liver, 0.05 mmol/kg i.v.", "value": 76, "unit": "ms"},
      {"measurement": "T2", "setting": "[1]; Liver, 0.05 mmol/kg i.v.", "value": 31, "unit": "ms"},
      {"measurement": "T1", "setting": "[1]; Liver, 0.10 mmol/kg i.v.", "value": 65, "unit": "ms"},
      {"measurement": "T2", "setting": "[1]; Liver, 0.10 mmol/kg i.v.", "value": 23, "unit": "ms"},
      {"measurement": "T1", "setting": "[1]; Liver, 0.20 mmol/kg i.v.", "value": 68, "unit": "ms"},
      {"measurement": "T2", "setting": "[1]; Liver, 0.20 mmol/kg i.v.", "value": 25, "unit": "ms"},
      {"measurement": "T1", "setting": "[1]; Lung, 0.05 mmol/kg i.v.", "value": 575, "unit": "ms"},
      {"measurement": "T2", "setting": "[1]; Lung, 0.05 mmol/kg i.v.", "value": 113, "unit": "ms"},
      {"measurement": "T1", "setting": "[1]; Lung, 0.10 mmol/kg i.v.", "value": 435, "unit": "ms"},
      {"measurement": "T2", "setting": "[1]; Lung, 0.10 mmol/kg i.v.", "value": 61, "unit": "ms"},
      {"measurement": "T1", "setting": "[1]; Lung, 0.20 mmol/kg i.v.", "value": 376, "unit": "ms"},
      {"measurement": "T2", "setting": "[1]; Lung, 0.20 mmol/kg i.v.", "value": 63, "unit": "ms"},
      {"measurement": "T1", "setting": "[1]; Renal Cort., 0.01 mmol/kg i.v.", "value": 298, "unit": "ms"},
      {"measurement": "T2", "setting": "[1]; Renal Cort., 0.01 mmol/kg i.v.", "value": 65, "unit": "ms"},
      {"measurement": "T1", "setting": "[1]; Renal Cort., 0.05 mmol/kg i.v.", "value": 210, "unit": "ms"},
      {"measurement": "T2", "setting": "[1]; Renal Cort., 0.05 mmol/kg i.v.", "value": 57, "unit": "ms"},
      {"measurement": "T1", "setting": "[1]; Renal Cort., 0.10 mmol/kg i.v.", "value": 188, "unit": "ms"},
      {"measurement": "T2", "setting": "[1]; Renal Cort., 0.10 mmol/kg i.v.", "value": 55, "unit": "ms"},
      {"measurement": "T1", "setting": "[1]; Renal Cort., 0.20 mmol/kg i.v.", "value": 143, "unit": "ms"},
      {"measurement": "T2", "setting": "[1]; Renal Cort., 0.20 mmol/kg i.v.", "value": 53, "unit": "ms"},
      {"measurement": "T1", "setting": "[1]; Renal Med., 0.01 mmol/kg i.v.", "value": 502, "unit": "ms"},
      {"measurement": "T2", "setting": "[1]; Renal Med., 0.01 mmol/kg i.v.", "value": 99, "unit": "ms"},
      {"measurement": "T1", "setting": "[1]; Renal Med., 0.05 mmol/kg i.v.", "value": 223, "unit": "ms"},
      {"measurement": "T2", "setting": "[1]; Renal Med., 0.05 mmol/kg i.v.", "value": 57, "unit": "ms"},
      {"measurement": "T1", "setting": "[1]; Renal Med., 0.10 mmol/kg i.v.", "value": 209, "unit": "ms"},
      {"measurement": "T2", "setting": "[1]; Renal Med., 0.10 mmol/kg i.v.", "value": 48, "unit": "ms"},
      {"measurement": "T1", "setting": "[1]; Renal Med., 0.20 mmol/kg i.v.", "value": 127, "unit": "ms"},
      {"measurement": "T2", "setting": "[1]; Renal Med., 0.20 mmol/kg i.v.", "value": 60, "unit": "ms"},
      {"measurement": "T1", "setting": "[1]; Skel. Musc., 0.05 mmol/kg i.v.", "value": 494, "unit": "ms"},
      {"measurement": "T2", "setting": "[1]; Skel. Musc., 0.05 mmol/kg i.v.", "value": 47, "unit": "ms"},
      {"measurement": "T1", "setting": "[1]; Skel. Musc., 0.10 mmol/kg i.v.", "value": 425, "unit": "ms"},
      {"measurement": "T2", "setting": "[1]; Skel. Musc., 0.10 mmol/kg i.v.", "value": 31, "unit": "ms"},
      {"measurement": "T1", "setting": "[1]; Skel. Musc., 0.20 mmol/kg i.v.", "value": 232, "unit": "ms"},
      {"measurement": "T2", "setting": "[1]; Skel. Musc., 0.20 mmol/kg i.v.", "value": 31, "unit": "ms"},
      {"measurement": "T1", "setting": "[1]; Small Int., 0.01 mmol/kg i.v.", "value": 324, "unit": "ms"},
      {"measurement": "T2", "setting": "[1]; Small Int., 0.01 mmol/kg i.v.", "value": 72, "unit": "ms"},
      {"measurement": "T1", "setting": "[1]; Small Int., 0.05 mmol/kg i.v.", "value": 237, "unit": "ms"},
      {"measurement": "T2", "setting": "[1]; Small Int., 0.05 mmol/kg i.v.", "value": 52, "unit": "ms"},
      {"measurement": "T1", "setting": "[1]; Small Int., 0.10 mmol/kg i.v.", "value": 218, "unit": "ms"},
      {"measurement": "T2", "setting": "[1]; Small Int., 0.10 mmol/kg i.v.", "value": 46, "unit": "ms"},
      {"measurement": "T1", "setting": "[1]; Small Int., 0.20 mmol/kg i.v.", "value": 131, "unit": "ms"},
      {"measurement": "T2", "setting": "[1]; Small Int., 0.20 mmol/kg i.v.", "value": 46, "unit": "ms"},
      {"measurement": "T1", "setting": "[1]; Stom., 0.05 mmol/kg i.v.", "value": 245, "unit": "ms"},
      {"measurement": "T2", "setting": "[1]; Stom., 0.05 mmol/kg i.v.", "value": 41, "unit": "ms"},
      {"measurement": "T1", "setting": "[1]; Stom., 0.10 mmol/kg i.v.", "value": 242, "unit": "ms"},
      {"measurement": "T2", "setting": "[1]; Stom., 0.10 mmol/kg i.v.", "value": 52, "unit": "ms"},
      {"measurement": "T1", "setting": "[1]; Stom., 0.20 mmol/kg i.v.", "value": 271, "unit": "ms"},
      {"measurement": "T2", "setting": "[1]; Stom., 0.20 mmol/kg i.v.", "value": 53, "unit": "ms"},
      {"measurement": "T1", "setting": "[1]; Urine, 0.01 mmol/kg i.v.", "value": 821, "unit": "ms"},
      {"measurement": "T1", "setting": "[1]; Urine, 0.05 mmol/kg i.v.", "value": 150, "unit": "ms"},
      {"measurement": "T2", "setting": "[1]; Urine, 0.05 mmol/kg i.v.", "value": 136, "unit": "ms"},
      {"measurement": "T1", "setting": "[1]; Urine, 0.10 mmol/kg i.v.", "value": 90, "unit": "ms"},
      {"measurement": "T2", "setting": "[1]; Urine, 0.10 mmol/kg i.v.", "value": 75, "unit": "ms"},
      {"measurement": "dose saturating the liver and kidneys", "setting": "[1]; rabbit, i.v.", "value": 0.10, "unit": "mmol/kg"},
      {"measurement": "uptake by the brain", "setting": "[1]; rabbit, i.v.", "value": "observed at higher doses"},
      {"measurement": "uptake in the heart, liver and kidneys", "setting": "[1]; rabbit, i.v.", "value": "rapid uptake"},
      {"measurement": "detection of blood-brain barrier defects by NMRI tomography", "setting": "[2]", "value": "defects were observed by NMRI tomography"}
    ]}
  ]
}
